The values that follow come from patent publication US11638689B2, “Deep topical systemic nitric oxide therapy apparatus and method” (SYK Technologies LLC, priority 2013, dated 2023).

A value given as a limit tells only on which side of the number the result lay.

The subject of the test is bacteria on a surface, such as a person's skin. In words: Nitric oxide dose required to kill bacteria on a surface. Particulars: ppm of nitric oxide.

Consider `[N]=O` [nitric oxide], for which the “dose required to kill bacteria on a surface” value was at least 320 ppm.
